Test system: HCT-116 Firefly-luciferase reporter cells
Test: Cellular c-MYC Reporter Assay
Type: cell-based
Conditions: Homo sapiens; untitled table following Table 8a; HCT-116 Firefly-luciferase reporter cells, 24 h; read-out: pIC50 (converted)
Procedure, shortened: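 Reporter cells seeded at 5e4 cells/mL in McCoy's 5A with 10% FBS and G418, dosed after 4–6 h at 0.2% final DMSO. After 24 h at 37 °C, luciferase luminescence was read with ONE-Glo.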

Row | SMILES | IC50 [nM]
1 | Cc1cncc(-c2ccc(C(=O)N(c3nccc4cccc(C)c34)[C@@H]3CCCNC3)c(F)c2)n1 [Example 202, (R)-2-fluoro-N-(8-methylisoquinolin-1-yl)-4-(6-methylpyrazin-2-yl)-N-(piperidin-3-yl)benzamide] | 372
2 | Cc1nccnc1-c1ccc(C(=O)N(c2nccc3cccc(C)c23)[C@@H]2CCCNC2)c(F)c1 [Example 203, (R)-2-fluoro-N-(8-methylisoquinolin-1-yl)-4-(3-methylpyrazin-2-yl)-N-(piperidin-3-yl)benzamide] | 129
3 | Cc1cccc2ccnc(N(C(=O)c3ccc(-c4cnccn4)cc3F)[C@@H]3CCCNC3)c12 [Example 204, (R)-2-fluoro-N-(8-methylisoquinolin-1-yl)-N-(piperidin-3-yl)-4-(pyrazin-2-yl)benzamide] | 479
4 | Cc1cccc2ccnc(N(C(=O)c3ccc(-n4nnc5ccc(C(F)(F)F)nc54)cc3F)[C@@H]3CCCNC3)c12 [Example 205, (R)-2-fluoro-N-(8-methylisoquinolin-1-yl)-N-(piperidin-3-yl)-4-(5-(trifluoromethyl)-3H-[1,2,3]triazolo[4,5-b]pyridin-3-yl)benzamide] | 170
5 | Cc1cccc2ccnc(N(C(=O)N3CCC(Nc4ncccn4)CC3)[C@@H]3CCCNC3)c12 [Example 208, (R)—N-(8-methylisoquinolin-1-yl)-N-(piperidin-3-yl)-4-(pyrimidin-2-ylamino)piperidine-1-carboxamide] | 3550
6 | Cc1ccc2nnn(-c3ccc(C(=O)N(c4nccc5ccn(C)c45)[C@@H]4CCCNC4)c(F)c3)c2n1 [Example 209, (R)-2-fluoro-N-(1-methyl-1H-pyrrolo[2,3-c]pyridin-7-yl)-4-(5-methyl-3H-[1,2,3]triazolo[4,5-b]pyridin-3-yl)-N-(piperidin-3-yl)benzamide] | 141
7 | Cc1cccc2ccnc(N(C(=O)c3ccc(Nc4ncccn4)cc3F)[C@@H]3CCCNC3)c12 [Example 210, (R)-2-fluoro-N-(8-methylisoquinolin-1-yl)-N-(piperidin-3-yl)-4-(pyrimidin-2-ylamino)benzamide] | 275
8 | Cc1cc(-c2ccc(C(=O)N(c3nccc4ccn(C)c34)[C@@H]3CCCNC3)c(F)c2)on1 [Example 212, (R)-2-fluoro-N-(1-methyl-1H-pyrrolo[2,3-c]pyridin-7-yl)-4-(3-methylisoxazol-5-yl)-N-(piperidin-3-yl)benzamide] | 355
9 | CNC(=O)c1cccnc1N(C(=O)c1ccc(-n2nnc3cccnc32)cc1F)[C@@H]1CCCNC1 [Example 213, (R)-2-(4-(3H-[1,2,3]triazolo[4,5-b]pyridin-3-yl)-2-fluoro-N-(piperidin-3-yl)benzamido)-N-methylnicotinamide] | 646
10 | Cc1cccc2ccnc(N(C(=O)c3ccc(-c4cnn5cccnc45)cc3F)[C@@H]3CCCNC3)c12 [Example 215, (R)-2-fluoro-N-(8-methylisoquinolin-1-yl)-N-(piperidin-3-yl)-4-(pyrazolo[1,5-a]pyrimidin-3-yl)benzamide] | 269
11 | CCc1ccc2nnn(-c3ccc(C(=O)N(c4nccc5cccc(C)c45)[C@@H]4CCCNC4)c(F)c3)c2n1 [Example 216, (R)-4-(5-ethyl-3H-[1,2,3]triazolo[4,5-b]pyridin-3-yl)-2-fluoro-N-(8-methylisoquinolin-1-yl)-N-(piperidin-3-yl)benzamide] | 437
12 | Cc1cccc2ccnc(N(C(=O)c3c(F)cc(-n4nnc5cccnc54)cc3F)[C@@H]3CCCNC3)c12 [Example 218, (R)-4-(3H-[1,2,3]triazolo[4,5-b]pyridin-3-yl)-2,6-difluoro-N-(8-methylisoquinolin-1-yl)-N-(piperidin-3-yl)benzamide] | 43.7
13 | Cc1cccc2ccnc(N(C(=O)c3ccc(N4CCOCC4)cc3)[C@@H]3CCCNC3)c12 [Example 219, (R)—N-(8-methylisoquinolin-1-yl)-4-morpholino-N-(piperidin-3-yl)benzamide] | 6310

— US20240400555A1 (Initial Therapeutics, Inc., priority 2023, published 2024)
